Reference: paper PMC5786788, “Antimicrobial Octapeptin C4 Analogues Active against Cryptococcus Species” (Antimicrobial Agents and Chemotherapy, 2018)
Converted amounts (≈) assume the structure as drawn. Where two headings read alike, the source gives them in different places.

Experiments:
[1] = test system: C. neoformans var. gattii; experiment: microbe, parasite or virus in culture
Description: (§1) The MICs of the yeast strains for PMB, PME, and octapeptin C4 and its derivatives were determined in accordance with CLSI M27-A2 guidelines using YNB (Becton Dickinson, USA) medium supplemented with 10 mM ammonium sulfate and 2% glucose, a final inoculum concentration of 1.5 × 10^3 to 2.0 × 10^3 cells/ml, and incubation at 35°C for 72 h ([39]). […] The MICs for PMB, PME, and octapeptin C4 for A. fumigatus were determined in accordance with the CLSI M38-A2 guidelines ([40]) using synthetic RPMI 1640 medium (with glutamine, without bicarbonate and with phenol red; Life Technologies, USA). The final inoculum concentration was 0.4 × 10^4 to 5 × 10^4 cells/ml, with incubation at 35°C for 48 h. […] All assays were completed in triplicate. Fluconazole was used as a positive control where the MIC was determined at both 50% growth (in accordance with CLSI M27-A2 guidelines) and when there was a “no visible growth” reading.

[2] = test system: C. neoformans var. neoformans; experiment: microbe, parasite or virus in culture; details: Cryptococcus neoformans
Description: as §1

OC(Cn1cncn1)(Cn1cncn1)c1ccc(F)cc1F [Fluconazole, fluconazole]
MIC ([1]; Cryptococcus neoformans, ATCC34882, strain ATCC 34882, no visible growth): 6.25 µg/mL (≈ 20.4 µM)
MIC ([1]; Cryptococcus neoformans, read-out: MIC-2, strain 93/980 (CSF France), 50% fungal growth): 1.56 µg/mL (≈ 5.09 µM)
MIC ([1]; Cryptococcus neoformans, read-out: MIC-2, strain B5742 (VGIV CSF India), 50% fungal growth): 3.13 µg/mL (≈ 10.2 µM)
MIC ([1]; Cryptococcus neoformans, read-out: MIC-2, strain R266 (Vancouver Island), 50% fungal growth): 6.25 µg/mL (≈ 20.4 µM)
MIC ([1]; Cryptococcus neoformans, read-out: MIC-2, strain R267 (Vancouver Island), 50% fungal growth): 25 µg/mL (≈ 81.6 µM)
MIC ([1]; Cryptococcus neoformans, read-out: MIC-2, strain R268 (Vancouver Island), 50% fungal growth): 0.78 µg/mL (≈ 2.55 µM)
MIC ([1]; Cryptococcus neoformans, read-out: MIC-2, strain R269 (Vancouver Island), 50% fungal growth): 3.13 µg/mL (≈ 10.2 µM)
MIC ([1]; Cryptococcus neoformans, read-out: MIC-2, strain R270 (Vancouver Island), 50% fungal growth): 3.13 µg/mL (≈ 10.2 µM)
MIC ([1]; Cryptococcus neoformans, strain R266 (Vancouver Island), no visible growth): 12.5 µg/mL (≈ 40.8 µM)
MIC ([1]; Cryptococcus neoformans, strain R267 (Vancouver Island), no visible growth): < 25 µg/mL
MIC ([1]; Cryptococcus neoformans, strain R268 (Vancouver Island), no visible growth): 1.56 µg/mL (≈ 5.09 µM)
MIC ([1]; Cryptococcus neoformans, strain R269 (Vancouver Island), no visible growth): 12.5 µg/mL (≈ 40.8 µM)
MIC ([1]; Cryptococcus neoformans, strain R270 (Vancouver Island), no visible growth): 6.25 µg/mL (≈ 20.4 µM)
MIC ([1]; read-out: MIC-2, strain 96/1120-1 (Brain HIV2 France), 50% fungal growth): 3.13 µg/mL (≈ 10.2 µM)
MIC ([1]; read-out: MIC-2, strain 96/1120-2 (CSF HIV2 France), 50% fungal growth): 6.25 µg/mL (≈ 20.4 µM)
MIC ([1]; read-out: MIC-2, strain B5748 (VGIV HIV India), 50% fungal growth): 3.13 µg/mL (≈ 10.2 µM)
MIC ([1]; strain 96/1120-1 (Brain HIV2 France), no visible growth): 25 µg/mL (≈ 81.6 µM)
MIC ([1]; strain 96/1120-2 (CSF HIV2 France), no visible growth): 25 µg/mL (≈ 81.6 µM)
MIC ([1]; strain B5748 (VGIV HIV India), no visible growth): 12.5 µg/mL (≈ 40.8 µM)
MIC ([2]; read-out: MIC-2, strain WM 01.127 (USA), 50% fungal growth): 6.25 µg/mL (≈ 20.4 µM)
MIC ([2]; read-out: MIC-2, strain WM 02.141 (Russia), 50% fungal growth): 3.13 µg/mL (≈ 10.2 µM)
MIC ([2]; read-out: MIC-2, strain WM 02.142 (Russia), 50% fungal growth): 6.25 µg/mL (≈ 20.4 µM)
MIC ([2]; read-out: MIC-2, strain WM 02.143 (Russia), 50% fungal growth): 6.25 µg/mL (≈ 20.4 µM)
MIC ([2]; read-out: MIC-2, strain WM 02.37 (Canada), 50% fungal growth): 6.25 µg/mL (≈ 20.4 µM)
MIC ([2]; read-out: MIC-2, strain WM 02.52 (Canada), 50% fungal growth): 3.13 µg/mL (≈ 10.2 µM)
MIC ([2]; read-out: MIC-2, strain WM 04.168 (Chile), 50% fungal growth): 6.25 µg/mL (≈ 20.4 µM)
MIC ([2]; read-out: MIC-2, strain WM 04.171 (Thailand, environmental), 50% fungal growth): 6.25 µg/mL (≈ 20.4 µM)
MIC ([2]; read-out: MIC-2, strain WM 05.467 (Brazil, environmental), 50% fungal growth): 6.25 µg/mL (≈ 20.4 µM)
MIC ([2]; read-out: MIC-2, strain WM 05.515 (Peru), 50% fungal growth): 1.56 µg/mL (≈ 5.09 µM)
MIC ([2]; read-out: MIC-2, strain WM 09.109 (Italy, environmental), 50% fungal growth): 3.13 µg/mL (≈ 10.2 µM)
MIC ([2]; read-out: MIC-2, strain WM 09.112 (USA), 50% fungal growth): 3.13 µg/mL (≈ 10.2 µM)
MIC ([2]; read-out: MIC-2, strain WM 10.119 (Australia), 50% fungal growth): 3.13 µg/mL (≈ 10.2 µM)
MIC ([2]; read-out: MIC-2, strain WM 629 (Australia), 50% fungal growth): 3.13 µg/mL (≈ 10.2 µM)
MIC ([2]; read-out: MIC-2, strain WM 1706 (Argentina), 50% fungal growth): 6.25 µg/mL (≈ 20.4 µM)
MIC ([2]; read-out: MIC-2, strain WM 1740 (Chile), 50% fungal growth): 3.13 µg/mL (≈ 10.2 µM)
MIC ([2]; read-out: MIC-2, strain WM 2207 (USA, environmental), 50% fungal growth): 12.5 µg/mL (≈ 40.8 µM)
MIC ([2]; read-out: MIC-2, strain WM 2242 (USA), 50% fungal growth): 1.56 µg/mL (≈ 5.09 µM)
MIC ([2]; read-out: MIC-2, strain WM 2530 (USA), 50% fungal growth): 3.13 µg/mL (≈ 10.2 µM)
MIC ([2]; strain WM 01.127 (USA), no visible growth): 12.5 µg/mL (≈ 40.8 µM)
MIC ([2]; strain WM 02.141 (Russia), no visible growth): 6.25 µg/mL (≈ 20.4 µM)
MIC ([2]; strain WM 02.142 (Russia), no visible growth): 12.5 µg/mL (≈ 40.8 µM)
MIC ([2]; strain WM 02.143 (Russia), no visible growth): 12.5 µg/mL (≈ 40.8 µM)
MIC ([2]; strain WM 02.37 (Canada), no visible growth): 25 µg/mL (≈ 81.6 µM)
MIC ([2]; strain WM 02.52 (Canada), no visible growth): 6.25 µg/mL (≈ 20.4 µM)
MIC ([2]; strain WM 04.168 (Chile), no visible growth): 12.5 µg/mL (≈ 40.8 µM)
MIC ([2]; strain WM 04.171 (Thailand, environmental), no visible growth): 6.25 µg/mL (≈ 20.4 µM)
MIC ([2]; strain WM 05.467 (Brazil, environmental), no visible growth): 12.5 µg/mL (≈ 40.8 µM)
MIC ([2]; strain WM 05.515 (Peru), no visible growth): 6.25 µg/mL (≈ 20.4 µM)
MIC ([2]; strain WM 09.109 (Italy, environmental), no visible growth): 6.25 µg/mL (≈ 20.4 µM)
MIC ([2]; strain WM 09.112 (USA), no visible growth): 12.5 µg/mL (≈ 40.8 µM)
MIC ([2]; strain WM 10.119 (Australia), no visible growth): 6.25 µg/mL (≈ 20.4 µM)
MIC ([2]; strain WM 629 (Australia), no visible growth): 6.25 µg/mL (≈ 20.4 µM)
MIC ([2]; strain WM 1706 (Argentina), no visible growth): 12.5 µg/mL (≈ 40.8 µM)
MIC ([2]; strain WM 1740 (Chile), no visible growth): 6.25 µg/mL (≈ 20.4 µM)
MIC ([2]; strain WM 2207 (USA, environmental), no visible growth): 25 µg/mL (≈ 81.6 µM)
MIC ([2]; strain WM 2242 (USA), no visible growth): 3.13 µg/mL (≈ 10.2 µM)
MIC ([2]; strain WM 2530 (USA), no visible growth): 6.25 µg/mL (≈ 20.4 µM)
